Experimental data: ChEMBL document CHEMBL1149068, “Comparison of the anti-herpes simplex virus activities of propolis and 3-methyl-but-2-enyl caffeate” (1994)

Assays:
Format in all cases: functional
Human alphaherpesvirus 1 [1] = experiment: Antiviral activity against HSV1 H29S in african green monkey Vero cells assessed as log reduction in viral titers after 1 multiple round of replication at 6.25 ug/ml after 72 hrs
Human alphaherpesvirus 1 [2] = experiment: Antiviral activity against HSV1 H29S in african green monkey Vero cells assessed as log reduction in viral titers after 0.001 multiple round of replication at 25 ug/ml after 72 hrs
Human alphaherpesvirus 1 [3] = experiment: Antiviral activity against HSV1 H29S in african green monkey Vero cells assessed as log reduction in viral titers after 1 multiple round of replication at 25 ug/ml after 72 hrs
Human alphaherpesvirus 1 [4] = experiment: Antiviral activity against HSV1 H29S in african green monkey Vero cells assessed as reduction in viral DNA synthesis after 1 multiple round of replication at 60 ug/ml after 18 hrs by agarose gel electrophoresis relative to control
Human alphaherpesvirus 1 [5] = experiment: Antiviral activity against HSV1 H29S in african green monkey Vero cells assessed as reduction in viral DNA synthesis after 1 multiple round of replication at 30 ug/ml after 18 hrs by agarose gel electrophoresis relative to control
Human alphaherpesvirus 1 [6] = experiment: Antiviral activity against HSV1 H29S in african green monkey Vero cells assessed as log reduction in viral titers after 1 multiple round of replication at 50 ug/ml after 72 hrs
Human alphaherpesvirus 1 [7] = experiment: Antiviral activity against HSV1 H29S in african green monkey Vero cells assessed as log reduction in viral titers after 0.001 multiple round of replication at 12.5 ug/ml after 72 hrs
Human alphaherpesvirus 1 [8] = experiment: Antiviral activity against HSV1 H29S in african green monkey Vero cells assessed as log reduction in viral titers after 1 multiple round of replication at 12.5 ug/ml after 72 hrs
Human alphaherpesvirus 1 [9] = experiment: Antiviral activity against HSV1 H29S in african green monkey Vero cells assessed as log reduction in viral titers after 0.001 multiple round of replication at 50 ug/ml after 72 hrs
Human alphaherpesvirus 1 [10] = experiment: Antiviral activity against HSV1 H29S in african green monkey Vero cells assessed as log reduction in viral titers after 0.001 multiple round of replication at 6.25 ug/ml after 72 hrs
Influenza A virus = experiment: Antiviral activity against influenza A virus Hong Kong assessed as reduction in viral titers of reproduction at 100 ug/ml

Row | SMILES | Activity (Human alphaherpesvirus 1 [1]) | Activity (Human alphaherpesvirus 1 [2]) | Activity (Human alphaherpesvirus 1 [3]) | fold change (FC) (Human alphaherpesvirus 1 [4]) | fold change (FC) (Human alphaherpesvirus 1 [5]) | Activity (Human alphaherpesvirus 1 [6]) | Activity (Human alphaherpesvirus 1 [7]) | Activity (Human alphaherpesvirus 1 [8]) | Activity (Human alphaherpesvirus 1 [9]) | Activity (Human alphaherpesvirus 1 [10]) | Selectivity Index (Influenza A virus)
1 | CC(C)=CCOC(=O)/C=C/c1ccc(O)c(O)c1 (stereo in doubt; form 2) [PRENYL CAFFEATE] | 1.75 | 3.25 | 2.8 | 32 | 8 | 2.8 | 1.25 | 2.5 | 3.6 | 0.6 | 
2 | COc1cc(/C=C/C(=O)OCCC(C)C)ccc1O [ISOPENTYL FERULATE] |  |  |  |  |  |  |  |  |  |  | 8
3 | Nc1nc2c(ncn2COCCO)c(=O)[nH]1 [ACYCLOVIR] |  | 3 |  |  |  |  | 3 |  | 3.25 | 2 | 
4 | CC(C)=CCOC(=O)/C=C/c1ccc(O)c(O)c1 (stereo in doubt; form 1) [PRENYL CAFFEATE] | 1 | 2 | 2.5 |  |  | 2.5 | 1.1 | 1.5 | 3.1 |  | 
